Format in all cases: cell-based
The subject of assay [1] is Bord. bronchiseptica BO9. Put plainly: MIC, veterinary bacteria. The note with it: Bordetella bronchiseptica.
The test system of assay [2] is Past. multocida PAI. Nature of the assay: MIC, veterinary bacteria. The note with it: Pasteurella multocida.
Assay [3] deals with Past. haemolytica PA5. Put plainly: MIC, veterinary bacteria. The note with it: Mannheimia haemolytica.
Assay [4] concerns Staph. aureus B4. Nature of the assay: MIC, veterinary bacteria. The note with it: Staphylococcus aureus.
For assay [5], the system named is Strep. uberis SPU 1. Nature of the assay: MIC, veterinary bacteria. The note with it: Streptococcus uberis, SPU1.
The test system of assay [6] is Strep. dysgalactiae SPD 1. Put plainly: MIC, veterinary bacteria. The note with it: Streptococcus dysgalactiae, SPD1.
For assay [7], the system named is Pasteurella multocida 1633. Nature of the assay: MIC, serial dilution in nutrient agar, human bacteria. The note with it: nutrient agar containing 5% chocolated horse blood.
The test system of assay [8] is Haemophilus influenzae Q1. Described as above. The note with it: nutrient agar containing 5% chocolated horse blood.
For assay [9], the system named is Haemophilus influenzae Wy21. The assay is described as above.
The subject of assay [10] is Neisseria catarrhalis 1502. Described as above.
The test system of assay [11] is Bacillus subtilis 6633. The assay is described as above.
Assay [12] relates to Staph. aureus Oxford. The assay is described as above. The note with it: Staphylococcus aureus.
The subject of assay [13] is Staph. aureus Russell. Described as above. The note with it: Staphylococcus aureus.
The subject of assay [14] is Strep. pneumoniae CN33. Described as above. The note with it: Streptococcus pneumoniae.
Assay [15] deals with Staph. aureus 152. Put plainly: MIC, veterinary bacteria. The note with it: Staphylococcus aureus.
Assay [16] concerns M. suipneumoniae Str. 11. Nature of the assay: in vitro MIC, anti-mycoplasmal activity. The note with it: Mesomycoplasma hyopneumoniae, Friis' broth, microtiter method.
Assay [17] relates to M. dispar H225. Nature of the assay: in vitro MIC, anti-mycoplasmal activity. The note with it: M. dispar H225; Friis' broth, microtiter method; read-out: M.I.C. The text has this:
(§1) Tables 3 and 4 show the in vitro MIC values (μg/ml) of the compounds of Examples 1 to 9 against a number of mycoplasma organisms, determined in Friis' broth using the microtiter method.

The test system of assay [18] is M. dispar NCTC 10125. Put plainly: in vitro MIC, anti-mycoplasmal activity. The note with it: Friis' broth, microtiter method.
Text: as §1

Assay [19] relates to M. fermentans MWKL4. Put plainly: in vitro MIC, anti-mycoplasmal activity. The note with it: Mycoplasmopsis fermentans, Friis' broth, microtiter method.
Text: as §1

Assay [20] concerns M. pneumoniae ATCC 15492. Nature of the assay: in vitro MIC, anti-mycoplasmal activity. The note with it: Mycoplasmoides pneumoniae, ATCC15492, Friis' broth, microtiter method.
Text: as §1

In assay [21] the test system is M. pulmonis JB. Nature of the assay: in vitro MIC, anti-mycoplasmal activity. The note with it: Mycoplasmopsis pulmonis, Friis' broth, microtiter method.
Text: as §1

The subject of assay [22] is M. suipneumoniae J2206/183b. Nature of the assay: in vitro MIC, anti-mycoplasmal activity. The note with it: Mesomycoplasma hyopneumoniae, Friis' broth, microtiter method.
Text: as §1

The test system of assay [23] is M. pneumoniae 427a. Nature of the assay: in vitro MIC, anti-mycoplasmal activity. The note with it: Mycoplasmoides pneumoniae, Friis' broth, microtiter method.
Setting [24] is: Strep. dysgalactiae SPD 1, read-out: M.I.C.
[25] abbreviates: Neisseria catarrhalis 1502, nutrient agar containing 5% chocolated horse blood, read-out: M.I.C.
[26] abbreviates: Bacillus subtilis 6633, nutrient agar containing 5% chocolated horse blood, read-out: M.I.C.
Where [27] appears, read: Staph. aureus Russell, nutrient agar containing 5% chocolated horse blood, read-out: M.I.C.
Setting [28] is: Bord. bronchiseptica BO9, read-out: M.I.C.
Setting [29] is: Past. multocida PAI, read-out: M.I.C.
Where [30] appears, read: Past. haemolytica PA5, read-out: M.I.C.
Where [31] appears, read: Staph. aureus B4, read-out: M.I.C.
Setting [32] is: Strep. uberis SPU 1, read-out: M.I.C.

Converted amounts (≈) assume the structure as drawn. Where two headings read alike, the source gives them in different places. Bounds are passed on as bounds.

Consider `COC(=O)CCNC(=O)C=C(C)CC1OCC(CC2OC2C(C)C(C)O)C(O)C1O` (centres unmarked) [Example 10, 2-Methoxycarbonylethylamide of monic acid A], for which the MIC in [1] (BO9) came to 20 µg/mL (≈ 46.6 µM); in assay [2], 0.625 µg/mL (≈ 1.46 µM); in assay [3] (PA5), 5 µg/mL (≈ 11.6 µM); in assay [4] (B4), 80 µg/mL (≈ 186 µM); in assay [5] it was 2.5 µg/mL (≈ 5.82 µM); in assay [6] (setting [24]), 20 µg/mL (≈ 46.6 µM).

`CC(=CC(=O)N(C)C)CC1OCC(CC2OC2C(C)C(C)O)C(O)C1O` (centres unmarked) [Example 4, Dimethylamide of monic acid A]: the MIC in assay [7] was determined as 2.5 µg/mL (≈ 6.73 µM); in [8], 2.5 µg/mL (≈ 6.73 µM); in [9] (Haemophilus influenzae Wy21, nutrient agar containing 5% chocolated horse blood, read-out: M.I.C.), 2.5 µg/mL (≈ 6.73 µM); in assay [10] (setting [25]), 2.5 µg/mL (≈ 6.73 µM); in [11] (setting [26]), 25 µg/mL (≈ 67.3 µM); in assay [12] (Staph. aureus Oxford, nutrient agar containing 5% chocolated horse blood, read-out: M.I.C.) it was 5 µg/mL (≈ 13.5 µM). Further, the MIC was determined as 25 µg/mL (≈ 67.3 µM) in assay [13] (setting [27]); 50 µg/mL (≈ 135 µM) in assay [14] (Strep. pneumoniae CN33, nutrient agar containing 5% chocolated horse blood, read-out: M.I.C.); 40 µg/mL (≈ 108 µM) in [1] (setting [28]); 5 µg/mL (≈ 13.5 µM) in [2] (setting [29]); 40 µg/mL (≈ 108 µM) in [3] (setting [30]); 20 µg/mL (≈ 53.8 µM) in assay [4] (setting [31]). The MIC is greater than 80 µg/mL in [15]; 20 µg/mL (≈ 53.8 µM) in [5] (setting [32]); 20 µg/mL (≈ 53.8 µM) in assay [6] (setting [24]); 10 µg/mL (≈ 26.9 µM) in [16]; 5 µg/mL (≈ 13.5 µM) in assay [17]; 2.5 µg/mL (≈ 6.73 µM) in assay [18]. For the same compound, the MIC in [19] is 1.25 µg/mL (≈ 3.36 µM); in assay [20], greater than 10 µg/mL; in assay [21] it was 5 µg/mL (≈ 13.5 µM); in assay [22], greater than 10 µg/mL; in [23] it was greater than 10 µg/mL.

As for `COC(=O)CCCCCNC(=O)C=C(C)CC1OCC(CC2OC2C(C)C(C)O)C(O)C1O` (centres unmarked) [Example 9, 5-Methoxycarbonylpentylamide of monic acid A], the MIC in assay [7] is 0.2 µg/mL (≈ 0.424 µM); in [8], 0.2 µg/mL (≈ 0.424 µM); in [10] (setting [25]), less than 0.02 µg/mL; in [11] (setting [26]) it was 10 µg/mL (≈ 21.2 µM); in assay [12], 25 µg/mL (≈ 53 µM); in assay [13] it was 100 µg/mL (≈ 212 µM). Besides, the MIC in assay [14] (CN33) worked out at 2.5 µg/mL (≈ 5.3 µM); in [1] (BO9), 10 µg/mL (≈ 21.2 µM); in assay [2] (setting [29]), 10 µg/mL (≈ 21.2 µM); in assay [3] (setting [30]), 10 µg/mL (≈ 21.2 µM); in assay [4] (setting [31]), 20 µg/mL (≈ 42.4 µM); in assay [15], 20 µg/mL (≈ 42.4 µM). The MIC came out at 0.625 µg/mL (≈ 1.33 µM) in assay [5]; 0.312 µg/mL (≈ 0.662 µM) in [6]; 0.625 µg/mL (≈ 1.33 µM) in assay [16]; 0.312 µg/mL (≈ 0.662 µM) in assay [17]; 0.312 µg/mL (≈ 0.662 µM) in [18]; 0.039 µg/mL (≈ 0.0827 µM) in assay [19]. Besides, the MIC in assay [21] was 0.039 µg/mL (≈ 0.0827 µM); in [22] it was 1.25 µg/mL (≈ 2.65 µM); in assay [23], 5 µg/mL (≈ 10.6 µM).

Turning to `COC(=O)CCCCCCCCNC(=O)C=C(C)CC1OCC(CC2OC2C(C)C(C)O)C(O)C1O` (centres unmarked) [Example 7, 8-Methoxycarbonyloctylamide of monic acid A], the MIC in assay [7] is 1 µg/mL (≈ 1.95 µM); in [8], 0.5 µg/mL (≈ 0.973 µM); in [9] (Haemophilus influenzae, WY21), 0.5 µg/mL (≈ 0.973 µM); in assay [10] (Neisseria, 1502), 0.1 µg/mL (≈ 0.195 µM); in assay [11] (Bacillus subtilis, 6633), 2.5 µg/mL (≈ 4.87 µM); in [12], 10 µg/mL (≈ 19.5 µM). Moreover, the MIC in assay [13] (setting [27]) was 25 µg/mL (≈ 48.7 µM); in assay [1] (setting [28]), 2 µg/mL (≈ 3.89 µM); in assay [2] (setting [29]), 1 µg/mL (≈ 1.95 µM); in [3] (setting [30]) it was 8 µg/mL (≈ 15.6 µM); in assay [4] (setting [31]), 4 µg/mL (≈ 7.79 µM); in assay [15] it was 8 µg/mL (≈ 15.6 µM). For the same compound, the MIC in assay [5] (setting [32]) was 0.125 µg/mL (≈ 0.243 µM); in assay [6] (setting [24]), 0.0625 µg/mL (≈ 0.122 µM); in [16], 1.25 µg/mL (≈ 2.43 µM); in assay [18], 0.156 µg/mL (≈ 0.304 µM); in assay [19], less than 0.02 µg/mL; in assay [20], 10 µg/mL (≈ 19.5 µM). Also, the figures for the MIC in assay [21], in assay [22] and in assay [23] were less than 0.02 µg/mL, 10 µg/mL (≈ 19.5 µM) and 10 µg/mL (≈ 19.5 µM), respectively.
